Results: the Kinase Knowledgebase extract (Sharma et al. 2016)
pIC50: −log10 of the molar value. ≈ marks a conversion by molar mass, not a printed value.

Columns and labels:
EGFR (human) [1] = target: EGFR (human) (UniProt P00533); details: hn5
EGFR [2] = target: EGFR (UniProt P00533)
PIK3CG (murine) = test: Inhibition of C5a-Mediated AKT Phosphorylation in Raw 264.7 Macrophages
EGFR (human) [3] = target: EGFR (human) (UniProt P00533); details: kb
MAPK14 (human) [4] = target: MAPK14 (human) (UniProt Q16539); test: TNF Inhibition (PBMC)
MAPK14 [5] = target: MAPK14 (UniProt Q16539); test: p38 Inhibition
MAPK14 [6] = target: MAPK14 (UniProt Q16539); test: Inhibition of p38 Kinase Activity
[7] = target: EGFR (Human), P00533 [T790M/L858R]
EGFR (human) [8] = target: EGFR (human) (UniProt P00533)
EGFR (human) [9] = target: EGFR (human) (UniProt P00533); remark: listed apart in the source
EGFR [10] = target: EGFR (UniProt P00533); remark: listed apart in the source
PIK3CG = PIK3CG (UniProt P48736); test: Inhibition of PIK3CG Kinase Activity
ROCK2 = ROCK2 (UniProt O75116); test: Inhibition of ROCK2 Kinase Activity
MAPK14 [11] = target: MAPK14 (UniProt Q16539); test: Assessment of MAPK14 Kinase Activity
PIK3CA (human) = PIK3CA (human) (UniProt P42336); test: Antiproliferation of NZOV9 Cell Line Using Thymidine Depletion Assay
MAPK14 [12] = target: MAPK14 (UniProt Q16539); test: p38 Inhibition Assay (in Vitro)
MAPK14 (human) [13] = target: MAPK14 (human) (UniProt Q16539); test: p38-alpha Kinase Inhibition; details: COS-1
EGFR [14] = target: EGFR (UniProt P00533); remark: listed apart in the source
EGFR (mouse) = EGFR (mouse) (UniProt P00533); details: swiss 3t3 fibroblast
MAPK14 [15] = target: MAPK14 (UniProt Q16539); test: MAPK14 Kinase Inhibition
EGFR (murine) = EGFR (murine) (UniProt P00533); details: nih 3t3
EGFR (Balb/c mice) = EGFR (Balb/c mice) (UniProt P00533)

Sequence of EGFR (human) (P00533 whole entry, looked up): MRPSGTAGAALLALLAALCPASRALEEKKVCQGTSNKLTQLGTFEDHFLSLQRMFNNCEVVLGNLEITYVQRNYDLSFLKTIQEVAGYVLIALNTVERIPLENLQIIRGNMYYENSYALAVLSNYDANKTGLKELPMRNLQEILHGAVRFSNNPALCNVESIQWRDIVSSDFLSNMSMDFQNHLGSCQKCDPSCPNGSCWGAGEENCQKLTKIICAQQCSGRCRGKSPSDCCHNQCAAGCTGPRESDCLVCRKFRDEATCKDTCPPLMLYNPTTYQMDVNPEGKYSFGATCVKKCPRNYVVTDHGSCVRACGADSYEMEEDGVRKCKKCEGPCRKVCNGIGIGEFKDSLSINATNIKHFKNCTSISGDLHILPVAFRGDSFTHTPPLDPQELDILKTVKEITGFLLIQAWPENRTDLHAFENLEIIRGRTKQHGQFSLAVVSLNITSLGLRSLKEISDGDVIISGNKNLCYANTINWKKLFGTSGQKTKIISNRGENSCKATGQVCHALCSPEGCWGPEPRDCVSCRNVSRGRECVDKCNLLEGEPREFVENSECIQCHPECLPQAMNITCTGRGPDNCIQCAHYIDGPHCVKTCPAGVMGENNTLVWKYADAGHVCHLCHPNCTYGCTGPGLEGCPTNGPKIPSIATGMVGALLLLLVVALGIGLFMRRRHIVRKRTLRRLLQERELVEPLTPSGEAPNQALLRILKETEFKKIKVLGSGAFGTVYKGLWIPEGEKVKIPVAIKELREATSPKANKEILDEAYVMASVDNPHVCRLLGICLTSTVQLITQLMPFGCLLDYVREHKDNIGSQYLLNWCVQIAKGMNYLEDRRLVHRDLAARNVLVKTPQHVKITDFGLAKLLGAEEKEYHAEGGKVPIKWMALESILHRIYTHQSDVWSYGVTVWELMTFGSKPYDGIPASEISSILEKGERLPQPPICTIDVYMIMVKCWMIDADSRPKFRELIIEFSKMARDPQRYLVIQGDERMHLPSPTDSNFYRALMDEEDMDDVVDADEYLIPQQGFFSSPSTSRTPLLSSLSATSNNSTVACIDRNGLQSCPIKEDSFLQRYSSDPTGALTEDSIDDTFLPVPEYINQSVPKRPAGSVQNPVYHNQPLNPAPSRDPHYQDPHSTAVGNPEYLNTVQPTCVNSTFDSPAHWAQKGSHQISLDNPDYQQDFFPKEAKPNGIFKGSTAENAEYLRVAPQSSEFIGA
Sequence of EGFR (P00533 whole entry, looked up): as above
Sequence of MAPK14 (human) (Q16539 whole entry, looked up): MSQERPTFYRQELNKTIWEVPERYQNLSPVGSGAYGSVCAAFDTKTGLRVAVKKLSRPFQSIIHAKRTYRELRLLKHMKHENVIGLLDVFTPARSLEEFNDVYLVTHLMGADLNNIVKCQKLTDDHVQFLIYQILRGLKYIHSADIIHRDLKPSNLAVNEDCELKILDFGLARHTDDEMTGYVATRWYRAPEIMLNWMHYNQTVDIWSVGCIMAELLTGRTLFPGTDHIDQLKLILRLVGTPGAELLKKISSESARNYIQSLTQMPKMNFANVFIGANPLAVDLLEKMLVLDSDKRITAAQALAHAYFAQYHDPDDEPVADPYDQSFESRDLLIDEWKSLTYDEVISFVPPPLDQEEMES
Sequence of MAPK14 (Q16539 whole entry, looked up): as above
Sequence of EGFR (murine) (P00533 whole entry, looked up): as the sequence (P00533 whole entry, looked up) above
Sequence of PIK3CA (human) (P42336 whole entry, looked up): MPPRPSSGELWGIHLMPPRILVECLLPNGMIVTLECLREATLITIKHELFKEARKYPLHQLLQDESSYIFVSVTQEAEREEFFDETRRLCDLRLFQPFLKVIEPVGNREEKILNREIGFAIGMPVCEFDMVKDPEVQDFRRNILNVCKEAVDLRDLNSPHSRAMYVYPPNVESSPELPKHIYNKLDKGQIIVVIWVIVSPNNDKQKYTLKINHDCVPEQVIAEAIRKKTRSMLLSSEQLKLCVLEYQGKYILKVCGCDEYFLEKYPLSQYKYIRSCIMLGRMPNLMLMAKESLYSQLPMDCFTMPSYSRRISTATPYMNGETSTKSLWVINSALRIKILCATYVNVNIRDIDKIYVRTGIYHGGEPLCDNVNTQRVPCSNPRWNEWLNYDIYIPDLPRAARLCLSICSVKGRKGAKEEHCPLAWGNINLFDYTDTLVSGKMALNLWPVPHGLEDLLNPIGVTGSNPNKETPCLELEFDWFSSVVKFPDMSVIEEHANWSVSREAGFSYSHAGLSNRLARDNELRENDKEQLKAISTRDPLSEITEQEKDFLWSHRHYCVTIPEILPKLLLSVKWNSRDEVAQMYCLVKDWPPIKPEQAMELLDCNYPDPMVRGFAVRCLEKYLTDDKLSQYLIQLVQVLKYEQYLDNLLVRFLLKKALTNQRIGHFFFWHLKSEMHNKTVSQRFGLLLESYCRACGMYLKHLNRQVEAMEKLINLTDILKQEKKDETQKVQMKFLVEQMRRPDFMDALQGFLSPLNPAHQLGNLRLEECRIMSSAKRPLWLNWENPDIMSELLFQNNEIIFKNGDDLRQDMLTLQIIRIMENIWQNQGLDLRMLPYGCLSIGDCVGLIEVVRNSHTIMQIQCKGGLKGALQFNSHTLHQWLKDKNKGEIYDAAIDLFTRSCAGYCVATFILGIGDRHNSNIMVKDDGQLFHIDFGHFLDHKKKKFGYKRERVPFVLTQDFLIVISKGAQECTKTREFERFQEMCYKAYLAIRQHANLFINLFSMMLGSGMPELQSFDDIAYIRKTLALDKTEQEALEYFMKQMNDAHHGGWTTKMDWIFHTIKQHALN

NC(=O)[C@H]1CCCN1Cc1ccc(-c2cc3c(Nc4ccc(OCc5ccccc5)cc4)ncnc3cn2)o1 gave a pIC50 (EGFR (human) [1]) of 6.46.

C=CC(=O)Nc1ccc2sc3c(Nc4cccc(Br)c4)c(C#N)cnc3c2c1 showed a pIC50 (EGFR [2]) of 5.00.

With O=C1NC(=O)/C(=C/c2ccc3nsnc3c2)S1 the inhibition (PIK3CG (murine)) was 100%.

COC(=O)N1CCC(Oc2cc3c(Nc4cccc(Cl)c4F)ncnc3cc2OC)CC1 gave a pIC50 (EGFR (human) [3]) of 7.46.

COc1cc2ncnc(Nc3ccc(F)c(Cl)c3F)c2cc1OC1CCN(C(=O)OCCN2CCCC2)CC1 was tested, and the pIC50 (EGFR (human) [3]) was 7.82.

C[Si](C)(C)CCOCn1c(CCCCO)nc(-c2ccncc2)c1-c1ccc(F)cc1 showed an inhibition (MAPK14 (human) [4]; concentration not given here) of 0%.

O=C(CCCNc1ncc(C(F)(F)F)cc1Cl)NNS(=O)(=O)c1ccc(CNC(=O)c2ccc(Cl)cc2)cc1 was tested, and the pIC50 (MAPK14 [5]) was < 4.52 and the pIC50 (MAPK14 [6]) was < 4.52.

Work on N=C1NC(=O)/C(=C/c2ccc3nccnc3c2)S1 yielded an inhibition (PIK3CG (murine)) of 100%.

For C=CC(=O)Nc1ccc(F)c(Nc2nc(Nc3cn(C)nc3C)ncc2Cl)c1, the pIC50 [7] was > 8.00.

Work on O=C1NC(=O)/C(=C/c2ccc3ncnc(N4CCCCC4)c3c2)S1 yielded an inhibition (PIK3CG (murine)) of 100%.

Work on O=C(/C=C/N1CC2CC1CO2)Nc1cc2c(Nc3ccc(F)c(Cl)c3)ncnc2cc1O[C@H]1CCOC1 (some centres undefined) yielded a pIC50 (EGFR (human) [8]) of 9.30.

Brc1cccc(Nc2ncnc3cc4c(cc23)OC(CN2CCOCC2)CO4)c1 (centres undefined) was tested, and the IC50 (EGFR (human) [9]) was 0.046 µg/mL (≈ 0.101 µM).

For CN(C)CCCC(=O)N1CCOc2cc3ncc(C#N)c(Nc4ccc(F)c(Cl)c4)c3cc21, the pIC50 (EGFR [10]) was 6.70.

CN(CC(N)=O)Cc1ccc(-c2cc3c(Nc4ccc(OCc5ccccc5)cc4)ncnc3cn2)o1 showed a pIC50 (EGFR (human) [1]) of 6.46.

With N#C/C(=C1/Nc2ccccc2S1)c1ccnc(NCCc2cccnc2)n1 the pIC50 (PIK3CG) was < 5.00 and the pIC50 (ROCK2) was 5.00 to 5.30.

For CS(=O)(=O)N1CCC(Nc2ncc3c(n2)N2CCN=C2C(c2ccccc2Cl)=C3)CC1, the pIC50 (MAPK14 [11]) was 8.57.

With O[C@H]1CC[C@H](Nc2ncc3c(n2)N2CCN=C2N(c2ccccc2Cl)C3)CC1 the pIC50 (MAPK14 [11]) was 5.18.

For Cc1ccc([N+](=O)[O-])cc1S(=O)(=O)N(C)N=Cc1cn(C)c2ccccc12, the pIC50 (PIK3CA (human)) was < 4.70.

OCc1ccc(-c2cc3c(Nc4ccc(OCc5ccccc5)cc4)ncnc3cn2)o1 was tested, and the pIC50 (EGFR (human) [1]) was 6.34.

N#Cc1cnc2c(sc3ccc(N)cc32)c1Nc1cccc(Br)c1 gave a pIC50 (EGFR [2]) of 5.00.

With O=C(NCc1ccc(S(=O)(=O)N2CCC(Nc3cccc(S(=O)(=O)C(F)(F)F)c3)CC2)s1)c1ccc(Cl)cc1 the pIC50 (MAPK14 [12]) was < 4.52.

Work on Oc1cc2nc(-c3cccs3)c(-c3cccs3)nc2cc1O yielded an inhibition (ROCK2; concentration not given here) of -18%.

Cc1ccccc1Cc1ccc(Nc2ccc(F)cc2C)cc1Cl was tested, and the pIC50 (MAPK14 (human) [13]) was < 4.00.

Fc1ccc(-c2[nH]c3ccccc3c2-c2ccncc2)cc1 was tested, and the pIC50 (MAPK14 (human) [4]) was < 5.00.

For Cc1cccc(Nc2ncnc3ccc(N(C)C(=O)NCCCl)cc23)c1, the pIC50 (EGFR [14]) was 5.77.

For CN1C(=S)C(C(=O)Nc2ccccc2)c2ccccc21 (centres undefined), the pIC50 (EGFR (mouse)) was < 4.00.

For Nc1nccc(-c2cccnc2-c2ccc(F)cc2)n1, the pIC50 (MAPK14 [15]) was > 4.30.

COc1cc2ncnc(Nc3cccc(Cl)c3F)c2cc1OC1CCN(C(=O)OCCN2CCCC2)CC1 gave a pIC50 (EGFR (human) [3]) of 8.05.

O=C(/C=C/CN1CC2CC1CO2)Nc1cc2c(Nc3ccc(F)c(Cl)c3)ncnc2cc1OC1CCCC1 (centres undefined) showed a pIC50 (EGFR (human) [8]) of 9.30.

In the case of N#Cc1cnc2cc3nc[nH]c3cc2c1Nc1cccc(Br)c1, the pIC50 (EGFR [2]) was 8.82.

In the case of O=C(/C=C/CN1CC2CC1CO2)Nc1cc2c(Nc3ccc(F)c(Cl)c3)ncnc2cc1O[C@H]1CCOC1 (some centres undefined), the pIC50 (EGFR (human) [8]) was 9.30.

With O=c1[nH]c2ccc(Oc3ccccc3)nc2[nH]1 the pIC50 (EGFR (murine)) was < 4.00.

In the case of Cc1ccc2ncnc(Nc3cccc(Cl)c3)c2c1, the LD50 (EGFR (Balb/c mice)) was > 400 mg/kg.

Cc1cccc(Nc2ncnc3ccc(N)cc23)c1 showed a pIC50 (EGFR [14]) of 6.00.

For O=C(NCc1ccc(S(=O)(=O)N2CCC(C(=O)c3ccc(F)cc3F)CC2)s1)c1ccc(Cl)cc1, the pIC50 (MAPK14 [12]) was < 4.52.

NC(=O)c1cccn(Cc2ccc(S(=O)(=O)NNC(=O)CCCNc3ncc(C(F)(F)F)cc3Cl)s2)c1=O was tested, and the pIC50 (MAPK14 [6]) was < 4.52.

Compound O=C(/C=C/CN1CC2CC1CO2)Nc1cc2c(Nc3ccc(F)c(Cl)c3)ncnc2cc1OCC1CC1 (centres undefined) has a pIC50 (EGFR (human) [8]) of 8.82.

Compound N#Cc1cnc2cc3c(cc2c1Nc1ccc(F)c(Cl)c1)N(C(=O)/C=C/CBr)CCO3.N#Cc1cnc2cc3c(cc2c1Nc1ccc(F)c(Cl)c1)N(C(=O)/C=C/CCl)CCO3 has a pIC50 (EGFR [10]) of 6.00 and an inhibition (EGFR [10]; concentration not given here) of 29.9%.

CS(=O)(=O)NCCNCc1ccc(-c2cc3c(Nc4ccc(OCc5ccccc5)cc4)ncnc3cn2)o1 gave a pIC50 (EGFR (human) [1]) of 6.14.

CC(C)Nc1ncc2cc(-c3ccccc3Cl)c3nccn3c2n1 gave a pIC50 (MAPK14 [11]) of 8.85.

For CCOC(=O)Nc1nc2ccc(Oc3ccccc3)nc2[nH]1, the pIC50 (EGFR (murine)) was < 4.00.
